According to patent US7501418B2, “Fused heterocyclic isoxazoline derivatives and their use as anti-depressants” (Janssen Pharmaceutica, N.V., priority 2002, dated 2009):
Where “and” joins values, the source holds several entries; their conditions need not be identical. Identical values can stand only once. Counter-ions that a name gives are not always drawn. Like-named read-outs stand apart in the source and are kept apart here.

Legend:
hα2C receptor = target: T1, hα2C receptor (Homo sapiens, UniProt P18825); experiment: Radioligand binding experiment for α2C-adrenergic receptor ([3H]-raulwolscine)
T1 construct: expressed in transfected cells
T1 sequence (P18825 1-462): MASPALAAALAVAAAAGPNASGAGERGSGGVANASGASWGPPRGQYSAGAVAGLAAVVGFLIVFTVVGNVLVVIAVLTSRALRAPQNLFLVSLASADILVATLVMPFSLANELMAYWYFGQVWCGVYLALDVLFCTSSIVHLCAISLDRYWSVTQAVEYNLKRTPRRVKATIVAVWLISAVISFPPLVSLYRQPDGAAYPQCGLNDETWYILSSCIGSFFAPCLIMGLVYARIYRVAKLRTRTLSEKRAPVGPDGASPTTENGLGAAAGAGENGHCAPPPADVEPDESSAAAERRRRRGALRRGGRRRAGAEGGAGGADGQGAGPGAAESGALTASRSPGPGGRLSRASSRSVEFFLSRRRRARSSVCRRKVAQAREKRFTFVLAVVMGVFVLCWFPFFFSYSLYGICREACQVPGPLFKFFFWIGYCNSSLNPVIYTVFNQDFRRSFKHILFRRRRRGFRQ
Experimental: (§1) In general, a low concentration of a radioligand with a high binding affinity for a particular receptor or transporter is incubated with a sample of a tissue preparation enriched in a particular receptor or transporter or with a preparation of cells expressing cloned human receptors in a buffered medium. During the incubation, the radioligand binds to the receptor or transporter. When equilibrium of binding is reached, the receptor bound radioactivity is separated from the non-bound radioactivity, and the receptor- or transporter-bound activity is counted. The interaction of the test compounds with the receptor is assessed in competition binding experiments. Various concentrations of the test compound are added to the incubation mixture containing the receptor- or transporter preparation and the radioligand. The test compound in proportion to its binding affinity and its concentration inhibits binding of the radioligand. The radioligand used for hα2A, hα2B and hα2C receptor binding was [^3H]-raulwolscine and for the h5-HT transporter was [^3H]paroxetine. CHO cells, stabile transfected with human adrenergic-α2A-, -α2B or α2C receptor cDNA, were cultured in Dulbecco's Modified Eagle's Medium (DMEM)/Nutrient mixture Ham's F12 (ratio 1:1)(Gibco, Gent-Belgium) supplemented with 10% heat inactivated fetal calf serum (Life Technologies, Merelbeke-Belgium) and antibiotics (100 IU/ml penicillin G, 100 μg/ml streptomycin sulphate, 110 μg/ml pyruvic acid and 100 μg/ml L-glutamine). One day before collection, cells were induced with 5 mM sodiumbutyrate. Upon 80-90% of confluence, cells were scraped in phosphate buffered saline without Ca^2+ and Mg^2+ and collected by centrifugation at 1500×g for 10 min. The cells were homogenised in Tris-HCl 50 mM using an Ultraturrax homogenizer and centrifuged for 10 min at 23,500×g. The pellet was washed once by resuspension and rehomogenization and the final pellet was resuspended in Tris-HCl, divided in 1 ml aliquots and stored at −70° C. Membranes were thawed and re-homogenized in incubation buffer (glycylglycine 25 mM, pH 8.0). In a total volume of 500 μl, 2-10 μg protein was incubated with [^3H]raulwolscine (NET-722) (New England Nuclear, USA) (1 nM final concentration) with or without competitor for 60 min at 25° C. followed by rapid filtration over GF/B filter using a Filtermate196 harvester (Packard, Meriden, Conn.). Filters were rinsed extensively with ice-cold rinsing buffer (Tris-HCl 50 mM pH 7.4). Filter-bound radioactivity was determined by scintillation counting in a Topcount (Packard, Meriden, Conn.) and results were expressed as counts per minute (cpm). Non-specific binding was determined in the presence of 1 μM oxymetazoline for hα2A- and hα2B receptors and 1 μM spiroxatrine for hα2C receptors. Data from assays in the presence of compound were calculated as a percentage of total binding measured in the absence of test compound. Inhibition curves, plotting percent of total binding versus the log value of the concentration of the test compound, were automatically generated, and sigmoidal inhibition curves were fitted using non-linear regression. The pIC50 values of test compounds were derived from individual curves.

hα2A receptor = target: T2, hα2A receptor (Homo sapiens, UniProt P08913); experiment: Radioligand binding experiment for α2A-adrenergic receptor ([3H]-raulwolscine); details: CHO cell membranes with human α2A receptor, [3H]raulwolscine 1 nM
T2 construct: expressed in transfected cells
T2 sequence (P08913 1-465): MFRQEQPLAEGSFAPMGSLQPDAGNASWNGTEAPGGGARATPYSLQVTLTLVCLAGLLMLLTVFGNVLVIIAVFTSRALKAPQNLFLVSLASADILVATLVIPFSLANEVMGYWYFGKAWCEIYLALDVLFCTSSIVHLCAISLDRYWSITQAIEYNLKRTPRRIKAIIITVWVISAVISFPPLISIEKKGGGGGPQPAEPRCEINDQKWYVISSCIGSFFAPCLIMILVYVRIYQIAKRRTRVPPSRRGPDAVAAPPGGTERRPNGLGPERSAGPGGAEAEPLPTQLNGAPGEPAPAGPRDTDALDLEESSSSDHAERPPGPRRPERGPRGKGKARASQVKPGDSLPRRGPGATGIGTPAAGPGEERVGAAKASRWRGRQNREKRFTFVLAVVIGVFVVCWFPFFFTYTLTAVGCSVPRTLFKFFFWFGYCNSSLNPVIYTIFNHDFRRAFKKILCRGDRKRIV
Experimental: as §1

hα2B receptor = target: T3, hα2B receptor (Homo sapiens, UniProt P18089); experiment: Radioligand binding experiment for α2B-adrenergic receptor ([3H]-raulwolscine)
T3 construct: expressed in transfected cells
T3 sequence (P18089 1-450): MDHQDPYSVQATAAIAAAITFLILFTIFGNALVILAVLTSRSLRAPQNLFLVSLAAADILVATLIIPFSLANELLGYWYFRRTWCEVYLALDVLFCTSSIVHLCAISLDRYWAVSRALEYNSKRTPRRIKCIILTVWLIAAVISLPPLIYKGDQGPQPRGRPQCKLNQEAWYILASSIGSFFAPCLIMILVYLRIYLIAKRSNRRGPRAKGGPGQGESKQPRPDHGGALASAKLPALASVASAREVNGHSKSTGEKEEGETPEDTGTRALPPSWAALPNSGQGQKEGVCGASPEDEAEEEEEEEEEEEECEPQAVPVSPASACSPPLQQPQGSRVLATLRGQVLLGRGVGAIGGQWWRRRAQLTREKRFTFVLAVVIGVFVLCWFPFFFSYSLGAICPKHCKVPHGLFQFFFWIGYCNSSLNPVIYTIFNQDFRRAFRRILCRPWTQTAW
Experimental: as §1

h5-HT transporter = target: T4, h5-HT transporter (Homo sapiens, UniProt P31645); experiment: Radioligand binding experiment for 5-HT transporter ([3H]paroxetine); details: human platelet membranes, [3H]paroxetine 0.5 nM
T4 construct: Human platelet membranes (Oceanix Biosciences Corporation, Hanover, Md., USA) were thawed; tissue Oceanix Biosciences Corporation, Hanover, Md., USA; host or cells: human platelet membranes
T4 sequence (P31645 whole entry): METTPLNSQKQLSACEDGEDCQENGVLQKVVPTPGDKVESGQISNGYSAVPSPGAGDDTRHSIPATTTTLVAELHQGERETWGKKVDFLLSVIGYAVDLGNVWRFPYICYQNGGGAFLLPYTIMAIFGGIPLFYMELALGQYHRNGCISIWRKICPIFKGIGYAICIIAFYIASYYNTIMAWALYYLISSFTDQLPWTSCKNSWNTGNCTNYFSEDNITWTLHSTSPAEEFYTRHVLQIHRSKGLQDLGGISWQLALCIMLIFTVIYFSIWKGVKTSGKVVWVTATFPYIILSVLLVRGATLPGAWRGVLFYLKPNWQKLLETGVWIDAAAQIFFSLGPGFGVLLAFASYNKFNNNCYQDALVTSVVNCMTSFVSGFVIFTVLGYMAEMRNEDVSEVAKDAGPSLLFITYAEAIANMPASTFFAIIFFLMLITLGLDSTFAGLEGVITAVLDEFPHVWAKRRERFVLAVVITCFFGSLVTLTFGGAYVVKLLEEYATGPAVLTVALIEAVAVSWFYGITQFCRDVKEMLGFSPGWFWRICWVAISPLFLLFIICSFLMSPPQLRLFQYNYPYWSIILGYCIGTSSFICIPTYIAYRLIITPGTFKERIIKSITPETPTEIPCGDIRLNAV
Experimental: In general, a low concentration of a radioligand with a high binding affinity for a particular receptor or transporter is incubated with a sample of a tissue preparation enriched in a particular receptor or transporter or with a preparation of cells expressing cloned human receptors in a buffered medium. During the incubation, the radioligand binds to the receptor or transporter. When equilibrium of binding is reached, the receptor bound radioactivity is separated from the non-bound radioactivity, and the receptor- or transporter-bound activity is counted. The interaction of the test compounds with the receptor is assessed in competition binding experiments. Various concentrations of the test compound are added to the incubation mixture containing the receptor- or transporter preparation and the radioligand. The test compound in proportion to its binding affinity and its concentration inhibits binding of the radioligand. The radioligand used for hα2A, hα2B and hα2C receptor binding was [^3H]-raulwolscine and for the h5-HT transporter was [^3H]paroxetine. Human platelet membranes (Oceanix Biosciences Corporation, Hanover, Md., USA) were thawed, diluted in buffer (Tris-HCl 50 mM, 120 mM NaCl and 5 mM KCl) and quickly (max 3 s) homogenised with an Ultraturrax homogenizer. In a total volume of 250 μL, 50-100 μg protein was incubated with [^3H]paroxetine (NET-869) (New England Nuclear, USA) (0.5 nM final concentration) with or without competitor for 60 min at 25 ° C. Incubation was stopped by rapid filtration of the incubation mixture over GF/B filters, pre-wetted with 0.1% polyethyleneamine, using a Filtermate196 harvester (Packard, Meriden, Conn.). Filters were rinsed extensively with ice-cold buffer and radioactivity on the filters was counted in a Topcount liquid scintillation counter (Packard, Meriden, Conn.). Data were expressed as cpm. Imipramine (at 1 μM final concentration) was used to determine the non-specific binding. Data from assays in the presence of compound were calculated as a percentage of total binding measured in the absence of test compound. Inhibition curves, plotting percent of total binding versus the log value of the concentration of the test compound, were automatically generated, and sigmoidal inhibition curves were fitted using non-linear regression. The pIC50 values of test compounds were derived from individual curves.

[1] = CHO cell membranes with human α2C receptor, [3H]raulwolscine 1 nM, read-out: hα2C (pIC50) (converted)
[2] = read-out: hα2A (pIC50) (converted)
[3] = read-out: 5-HTT (pIC50) (converted)
[4] = CHO cell membranes with human α2C receptor, [3H]raulwolscine 1 nM
[5] = CHO cell membranes with human α2B receptor, [3H]raulwolscine 1 nM

Row | melting point | IC50 (hα2C receptor; [1]) | IC50 (hα2A receptor; [2]) | IC50 (h5-HT transporter; [3]) | Structure (SMILES) | hα2C (pIC50) (hα2C receptor; [4]) | hα2A (pIC50) (hα2A receptor) | hα2B (pIC50) (hα2B receptor; [5]) | 5-HTT (pIC50) (h5-HT transporter) | further results
1 | 142.3 to 146 °C | 7.94 nM | 2 nM | 79.4 nM | C/C(=C\c1ccc(F)cc1)CN1CCN(CC2ON=C3c4sccc4OCC32)CC1 (centres unmarked) [Compound 27, 3-{4-[3-(4-fluoro-pheny)-2-methyl-allyl]-piperazin-1-ylmethyl}-3a,4-dihydro-3H-2,5-dioxa-8-thia-1-aza-as-indacene] |  |  |  |  | 
2 |  | 1.58 nM | 1.26 nM and 1.58 nM | 200 nM and 31.6 nM | C/C(=C\c1ccccc1)CN1CCN(CC2ON=C3c4ccncc4OCC32)CC1 (centres unmarked) [Compound 18, 3-[4-(2-methyl-3-phenyl-allyl)-piperazin-1-ylmethyl]-3a,4-dihydro-3H-2,5-dioxa-1,7-diaza-cyclopenta[a]naphthalene oxalate salt (1/1)] |  |  |  |  | IC50 (hα2B receptor; CHO cell membranes with human α2B receptor, [3H]raulwolscine 1 nM, read-out: hα2B (pIC50) (converted)): 1.58 nM
3 | 216.8 to 220.5 °C |  |  |  | C/C(=C\c1ccccc1)CN1CCN(CC2ON=C3c4ccncc4OCC32)CC1 (centres unmarked) (as salt: oxalate) [Compound 18, 3-[4-(2-methyl-3-phenyl-allyl)-piperazin-1-ylmethyl]-3a,4-dihydro-3H-2,5-dioxa-1,7-diaza-cyclopenta[a]naphthalene oxalate salt (1/1)] |  |  |  |  | 
4 | 145.6 to 152.3 °C | 31.6 nM | 6.31 nM | 200 nM | C/C(=C\c1ccc(F)cc1)CN1CCN(CC2ON=C3c4ncccc4OCC32)CC1 (centres unmarked) [Compound 24, 3-{4-[3-(4-fluoro-phenyl)-2-methyl-allyl]-piperazin-1-ylmethyl}-3a,4-dihydro-3H-2,5-dioxa-1,9-diaza-cyclopenta[a]naphthalene] |  |  |  |  | 
5 |  |  |  |  | c1ccc2cc(CN3CCN(CC4ON=C5c6cc7cc[nH]c7cc6OCC54)CC3)ccc2c1 (racemic) [Compound 4] | 8.4 | 7.6 | 7.3 | 8.8 | 
6 |  |  |  |  | C/C(=C\c1cccc(F)c1)CN1CCN(CC2ON=C3c4cc5cc[nH]c5cc4OCC32)CC1 (racemic) [Compound 2] | 9.0 | 8.1 | 8.3 | 8.3 | 
7 |  |  |  |  | C/C(=C\c1ccc(F)cc1)CN1CCN(CC2ON=C3c4cc5cc[nH]c5cc4OCC32)CC1 (racemic) [Compound 3] | 8.7 | 7.8 | 7.6 | 8.2 | 

Row | Structure (SMILES) | melting point | IC50 (hα2C receptor; [1]) | IC50 (hα2A receptor; [2]) | IC50 (h5-HT transporter; [3]) | hα2C (pIC50) (hα2C receptor; [4]) | hα2A (pIC50) (hα2A receptor) | hα2B (pIC50) (hα2B receptor; [5]) | 5-HTT (pIC50) (h5-HT transporter) | further results
8 | C/C(=C\c1ccccc1)CN1CCN(C[C@@H]2ON=C3c4cc5cc[nH]c5cc4OC[C@H]32)CC1 (relative stereo) [Compound 1, 3-[4-(2-Methyl-3-phenyl-allyl)-piperazin-1-ylmethyl]-3a,4-dihydro-3H-2,5-dioxa-1,7-diaza-dicyclopenta[a,g]naphthalene] | 173.2 to 179.1 °C |  |  |  |  |  |  |  | IC50 (hα2C receptor): 1 nM; IC50 (hα2A receptor; hα2A (pIC50)): 5.01 nM; IC50 (hα2B receptor): 3.98 nM; IC50 (h5-HT transporter; 5-HTT (pIC50)): 3.98 nM
9 | C/C(=C\c1ccccc1)CN1CCN(CC2ON=C3c4cc5ccn(CCO)c5cc4OCC32)CC1 (single isomer, unassigned) [Compound 17, B-2-{3-[4-(2-methyl-3-phenyl-allyl)-piperazin-1-ylmethyl]-3a,4-dihydro-3H-2,5-dioxa-1,7-diaza-dicyclopenta[a,g]naphthalen7-yl}-ethanol] | 167.5 to 170.5 °C |  |  |  |  |  |  |  | IC50 (hα2C receptor; hα2C (pIC50), CHO cell membranes with human α2C receptor, [3H]raulwolscine 1 nM): 2 nM; IC50 (hα2A receptor; hα2A (pIC50)): 10 nM; IC50 (hα2B receptor; hα2B (pIC50), CHO cell membranes with human α2B receptor, [3H]raulwolscine 1 nM): 5.01 nM; IC50 (h5-HT transporter; 5-HTT (pIC50)): 501 nM
